Measurements from EP0652008A1 (priority 1993, dated 1995).
Read-outs that look alike come from different tables or passages of the source.

Assays:
[1] = in vivo; cited from earlier work
[2] = tested on: Francisella tularensis; assay type: in vivo, BALB/c mice; details: for % SURVIVALS AT DAY 14 POST INFECTION: single dose 1 mg per mouse
[3] = tested on: Francisella tularensis; assay type: in vivo, BALB/c mice; details: for % SURVIVALS AT DAY 14 POST INFECTION: single dose
[4] = patients taking both ciprofloxacin and theophylline; many to the toxic range; cited from earlier work

| Structure (SMILES) | bioavailability rates [1] | % SURVIVALS AT DAY 14 POST INFECTION ([2]; INTRANSAL pretreatment and infection, 1 day before infection) | % SURVIVALS AT DAY 14 POST INFECTION ([2]; INTRANSAL pretreatment and infection, 2 days before infection) | % SURVIVALS AT DAY 14 POST INFECTION ([2]; INTRANSAL pretreatment and infection, 3 days before infection) | % SURVIVALS AT DAY 14 POST INFECTION ([2]; INTRANSAL pretreatment and infection, 7 days before infection) | % SURVIVALS AT DAY 14 POST INFECTION ([2]; INTRAVENOUS pretreatment and infection, 1 day before infection) | % SURVIVALS AT DAY 14 POST INFECTION ([2]; INTRAVENOUS pretreatment and infection, 2 days before infection) | % SURVIVALS AT DAY 14 POST INFECTION ([2]; INTRAVENOUS pretreatment and infection, 3 days before infection) | % SURVIVALS AT DAY 14 POST INFECTION ([2]; INTRAVENOUS pretreatment and infection, 7 days before infection) | protection by single dose before infection (in words) ([2]; single dose before infection with 10 LD50) | % SURVIVALS AT DAY 14 POST INFECTION ([3]; INTRANSAL infection and treatment, 1 day after infection) | % SURVIVALS AT DAY 14 POST INFECTION ([3]; INTRANSAL infection and treatment, 2 days after infection) | % SURVIVALS AT DAY 14 POST INFECTION ([3]; INTRANSAL infection and treatment, 3 days after infection) | % SURVIVALS AT DAY 14 POST INFECTION ([3]; INTRANSAL infection and treatment, 7 days after infection) | % SURVIVALS AT DAY 14 POST INFECTION ([3]; INTRAVENOUS infection and treatment, 1 day after infection) | % SURVIVALS AT DAY 14 POST INFECTION ([3]; INTRAVENOUS infection and treatment, 2 days after infection) | % SURVIVALS AT DAY 14 POST INFECTION ([3]; INTRAVENOUS infection and treatment, 3 days after infection) | % SURVIVALS AT DAY 14 POST INFECTION ([3]; INTRAVENOUS infection and treatment, 7 days after infection) | efficacy in the treatment of infected mice (in words) ([3]; single dose at day 1, 2, 3 and 7 post infection) | patients who developed increases of theophylline [4] |
| --- | --- | --- | --- | --- | --- | --- | --- | --- | --- | --- | --- | --- | --- | --- | --- | --- | --- | --- | --- | --- |
| CC1(C)S[C@@H]2[C@H](NC(=O)Cc3ccccc3)C(=O)N2[C@H]1C(=O)O [penicillin G] | 45-50% | – | – | – | – | – | – | – | – | – | – | – | – | – | – | – | – | – | – | – |
| O=C(O)c1cn(C2CC2)c2cc(N3CCNCC3)c(F)cc2c1=O [Ciprofloxacin, ciprofloxacin] | – | 0% | 0% | 0% | 12% | 8% | 0% | 12% | 0% | succumbed to 10 LD₅₀ of tularemia in a manner similar to the control untreated mice | 50% | 0% | 25% | 0% | 0% | 25% | 0% | 12% | totally ineffective | 20 of 33 |
